The values below come from article PMC7615677 (Science translational medicine, 2023).

The structures appear in SMILES notation. Some results are limits rather than exact numbers.

The test system of data set [1] is T. brucei brucei (bloodstream form). The data set can be described thus: In vitro activity against other kinetoplastid parasites. It is filed as cell-based. The settings on record: Trypanosoma brucei, one range given for T. brucei brucei and T. b. rhodesiense.
Data set [2] can be described thus: Plasma protein binding (rapid equilibrium dialysis). It is filed as in vitro ADME. Particulars: diluted to 10% in PBS, pH 7.4. The protocol: Human plasma was purchased from Innovative Research, Inc (Novi, MI, USA). Dog (beagle), rat (Sprague Dawley) and hamster (golden Syrian) plasma were procured from Valley Biomedical Products and Services, Inc. (Winchester, VA, USA). Mouse (BALB/c) plasma was collected in-house (animals sourced from Monash Animal Services, Monash University). All plasma was stored frozen at -20°C until use.
Plasma protein binding was assessed using rapid equilibrium dialysis (RED) according to methods published previously ([10]). […] Parallel spiked aliquots of 10% plasma were used to assess compound stability under the same incubation conditions. At the completion of the dialysis period, aliquots were taken from the donor and dialysate chambers to obtain measurements of the total and free concentration, respectively. The pH of the matrix and dialysate were confirmed to be within pH 7.4 ± 0.1 for the duration of the experiment.
Dialysis was conducted for 6 h and parallel non-dialyzed samples were included to confirm the absence of compound degradation. Binding to hepatocytes (at a cell density of 1 x 10^6 cells/mL) was calculated from the measured microsomal binding (at 1 mg/mL) as described previously ([26]). The fraction unbound (fu) was determined from the ratio of the dialysate to the donor concentration, assuming that the system was at steady state at the end of the dialysis period. For plasma, the data were corrected for the dilution factor to give a binding value for neat plasma according to previously published methods ([27]).

Data set [3] can be described thus: In vitro metabolism, cryopreserved hepatocytes. In kind it is in vitro ADME, dog. Here is the method: Cell viability was determined using trypan blue exclusion. The incubation was performed on a plate shaker (Heidolph Titrimax 100, 900 rpm) placed in a humidified incubator (37°C, 7.5% CO2) for 240 min. The reaction was initiated with the addition of compound with samples taken periodically and quenched with the addition of acetonitrile containing internal standards (metolazone and diazepam). Quenched samples were maintained on ice for approximately 20-30 min, centrifuged (for 5 min) and the supernatant analyzed by LC-MS.
In vitro intrinsic clearance (CLint, μL/min/mg or μL/min/10^6 cells) values were calculated from the apparent first order degradation rate constant divided by the microsome concentration or the hepatocyte cell number (10^6 viable cells/mL). In vitro CLint values were then divided by the fraction unbound in the in vitro test system (to give CLint,u) and scaled to in vivo values (mL/min/kg) using published physiological scaling factors ([28]). Blood clearance in each species was then calculated using the well-stirred model of hepatic extraction (equation 2) where Q is the hepatic blood flow and fu,blood is calculated from fu,plasma/B:P: [2] PredictedCLblood=Q x fu,blood x CLint,u/Q+fu,blood x CLint,u
Blood clearance values were converted to plasma clearance by multiplying by the B:P.

The next data set can be described thus: In vivo pharmacokinetics. On the set-up: species or system female BALB/c mice. The settings on record: female, BALB/c, plasma. The protocol:
Single dose intravenous (IV) pharmacokinetic (PK) studies in male Sprague Dawley rats and IV and oral PK studies in female BALB/c mice were conducted at Monash University. […] Blood was sampled via a cannula implanted in the carotid artery (also on the day prior to dosing) at pre-determined time points up to 24 h post-dose. Samples were transferred to vials containing heparin as an anticoagulant, gently mixed and centrifuged, and plasma separated for subsequent quantitative analysis using LC-MS. […] A dose of 25 mg/kg prepared in an aqueous suspension vehicle containing 0.5% hydroxypropyl methylcellulose, 0.5% benzyl alcohol and 0.4% polysorbate 80 (0.2 mL per mouse) was also dosed via oral gavage. Mouse blood was sampled via submandibular bleed up to 24 h post-dose (n=2 mice per time point, n=3 samples per mouse) into vials containing heparin and plasma was separated for quantitative analysis as described above.
Additional PK studies were also conducted by WuXi AppTec Co, Ltd (Shanghai, China) according to protocols reviewed and approved by DNDi. […] IV and oral formulations for rats, mice and hamsters were the same as described above. For dogs, the IV dose was administered in saline containing 2% DMSO and 3% Solutol HS-15 and the oral formulation was as described above. Blood was sampled up to 48 h post-dose into vials containing potassium EDTA as an anticoagulant, proteins were precipitated with acetonitrile and plasma was separated and assayed by LC-MS.
Single dose pharmacokinetic parameters (clearance, volume of distribution and half-life) were initially estimated using non-compartmental methods and oral bioavailability was calculated using the ratio of the dose corrected AUC after oral dosing relative to that after IV administration. […] Where a full concentration versus time profile was obtained from a single animal, parameters were estimated for each animal and mean and standard deviations calculated. In the case of mice where sparse sampling was used with multiple animals per time point, the data analysis was conducted using the mean profile.

The nature of data set [4]: In vitro cytotoxicity assays, all cell lines tested. In kind it is cell-based. The settings on record: mouse, human, African green monkey.
The next data set relates to AR. The data set can be described thus: In vitro pharmacology panel (Eurofins). It is filed as binding, human. Particulars: 10 µM. From the text:
(§1) Listed values represent the percent change relative to the DMSO control activity. When an IC50 had to be determined, eight different concentrations were included. All values are the mean of assay readout duplicates.

A further data set deals with T1, COX1 (Homo sapiens, UniProt P23219).
T1 construct: purchased Eurofins (Cerep/DiscoverX SafetyScreen44 in vitro pharmacology panel)
Briefly: In vitro pharmacology panel (Eurofins). It is filed as biochemical. Particulars: read-out: activity (% of DMSO control).
Text: as §1

In a further data set the target is T2, COX2 (Homo sapiens, UniProt P35354).
T2 construct: purchased Eurofins (Cerep/DiscoverX SafetyScreen44 in vitro pharmacology panel)
Briefly: In vitro pharmacology panel (Eurofins). In kind it is biochemical. Particulars: read-out: activity (% of DMSO control).
Text: as §1

A further data set deals with T3, Lck kinase (Homo sapiens, UniProt P06239).
T3 construct: purchased Eurofins (Cerep/DiscoverX SafetyScreen44 in vitro pharmacology panel)
The data set can be described thus: In vitro pharmacology panel (Eurofins). In kind it is biochemical. The settings on record: read-out: activity (% of DMSO control).
Text: as §1

Another data set addresses T4, PDE3A (Homo sapiens, UniProt Q14432).
T4 construct: Eurofins (contract assay)
The data set can be described thus: In vitro pharmacology panel (Eurofins). It is filed as biochemical.
Text: as §1

In a further data set the target is T5, PDE4D2 (Homo sapiens, UniProt Q08499).
T5 construct: Eurofins (contract assay)
The data set can be described thus: In vitro pharmacology panel (Eurofins). It is filed as biochemical.
Text: as §1

In another data set the target is T6, acetylcholinesterase (Homo sapiens, UniProt P22303).
T6 construct: Eurofins (contract assay)
Briefly: In vitro pharmacology panel (Eurofins). It is filed as biochemical. Particulars: read-out: activity (% of DMSO control).
Text: as §1

Another data set concerns the target NaV1.5 (Homo sapiens, UniProt Q14524). Briefly: Qube NaV1.5.
Setting [5] is: 10 µM, read-out: activity (% of DMSO control).

T5 sequence (Q08499 303-809 limits assumed): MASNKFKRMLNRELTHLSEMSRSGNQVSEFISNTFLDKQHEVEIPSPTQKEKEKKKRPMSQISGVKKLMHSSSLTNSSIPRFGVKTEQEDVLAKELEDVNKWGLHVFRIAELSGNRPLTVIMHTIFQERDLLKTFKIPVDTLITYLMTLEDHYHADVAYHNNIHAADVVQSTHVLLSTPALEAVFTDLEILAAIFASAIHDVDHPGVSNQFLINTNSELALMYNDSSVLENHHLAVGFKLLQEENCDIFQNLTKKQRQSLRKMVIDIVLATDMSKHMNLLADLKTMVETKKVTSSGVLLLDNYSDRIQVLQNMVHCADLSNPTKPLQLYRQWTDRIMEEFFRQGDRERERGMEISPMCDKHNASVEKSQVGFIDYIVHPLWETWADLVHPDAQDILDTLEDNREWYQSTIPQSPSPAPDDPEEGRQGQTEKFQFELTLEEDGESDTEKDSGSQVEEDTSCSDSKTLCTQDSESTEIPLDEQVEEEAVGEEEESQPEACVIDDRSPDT
T4 sequence (Q14432 whole entry): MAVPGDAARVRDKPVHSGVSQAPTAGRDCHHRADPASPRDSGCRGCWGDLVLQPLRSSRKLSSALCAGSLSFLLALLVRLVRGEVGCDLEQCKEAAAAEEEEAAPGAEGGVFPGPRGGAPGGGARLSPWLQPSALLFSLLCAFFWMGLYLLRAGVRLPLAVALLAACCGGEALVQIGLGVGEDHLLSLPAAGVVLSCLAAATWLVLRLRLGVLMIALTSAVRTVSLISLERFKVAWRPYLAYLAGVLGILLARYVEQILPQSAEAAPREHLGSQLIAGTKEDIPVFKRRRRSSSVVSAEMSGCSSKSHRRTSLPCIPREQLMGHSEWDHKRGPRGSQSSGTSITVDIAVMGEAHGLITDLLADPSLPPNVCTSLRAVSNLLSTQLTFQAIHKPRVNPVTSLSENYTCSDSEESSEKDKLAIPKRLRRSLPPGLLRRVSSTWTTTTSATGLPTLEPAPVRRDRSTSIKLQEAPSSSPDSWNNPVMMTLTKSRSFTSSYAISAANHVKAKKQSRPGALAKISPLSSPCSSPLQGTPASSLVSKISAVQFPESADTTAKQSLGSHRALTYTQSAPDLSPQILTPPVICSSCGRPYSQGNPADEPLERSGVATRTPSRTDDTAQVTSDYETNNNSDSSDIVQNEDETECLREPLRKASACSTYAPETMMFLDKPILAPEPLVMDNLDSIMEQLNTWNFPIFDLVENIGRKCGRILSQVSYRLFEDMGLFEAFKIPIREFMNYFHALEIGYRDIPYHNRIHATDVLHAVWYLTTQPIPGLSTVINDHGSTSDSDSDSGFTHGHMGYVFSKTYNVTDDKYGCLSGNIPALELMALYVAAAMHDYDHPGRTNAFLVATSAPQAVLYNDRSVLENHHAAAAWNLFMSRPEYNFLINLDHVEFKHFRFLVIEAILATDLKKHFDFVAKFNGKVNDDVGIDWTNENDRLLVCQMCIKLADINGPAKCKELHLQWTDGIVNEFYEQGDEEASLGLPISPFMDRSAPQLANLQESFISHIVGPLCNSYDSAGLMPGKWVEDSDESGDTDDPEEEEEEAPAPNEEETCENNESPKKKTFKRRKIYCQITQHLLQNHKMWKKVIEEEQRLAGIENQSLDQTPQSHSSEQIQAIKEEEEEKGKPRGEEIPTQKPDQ
NaV1.5, sequence (Q14524 whole entry): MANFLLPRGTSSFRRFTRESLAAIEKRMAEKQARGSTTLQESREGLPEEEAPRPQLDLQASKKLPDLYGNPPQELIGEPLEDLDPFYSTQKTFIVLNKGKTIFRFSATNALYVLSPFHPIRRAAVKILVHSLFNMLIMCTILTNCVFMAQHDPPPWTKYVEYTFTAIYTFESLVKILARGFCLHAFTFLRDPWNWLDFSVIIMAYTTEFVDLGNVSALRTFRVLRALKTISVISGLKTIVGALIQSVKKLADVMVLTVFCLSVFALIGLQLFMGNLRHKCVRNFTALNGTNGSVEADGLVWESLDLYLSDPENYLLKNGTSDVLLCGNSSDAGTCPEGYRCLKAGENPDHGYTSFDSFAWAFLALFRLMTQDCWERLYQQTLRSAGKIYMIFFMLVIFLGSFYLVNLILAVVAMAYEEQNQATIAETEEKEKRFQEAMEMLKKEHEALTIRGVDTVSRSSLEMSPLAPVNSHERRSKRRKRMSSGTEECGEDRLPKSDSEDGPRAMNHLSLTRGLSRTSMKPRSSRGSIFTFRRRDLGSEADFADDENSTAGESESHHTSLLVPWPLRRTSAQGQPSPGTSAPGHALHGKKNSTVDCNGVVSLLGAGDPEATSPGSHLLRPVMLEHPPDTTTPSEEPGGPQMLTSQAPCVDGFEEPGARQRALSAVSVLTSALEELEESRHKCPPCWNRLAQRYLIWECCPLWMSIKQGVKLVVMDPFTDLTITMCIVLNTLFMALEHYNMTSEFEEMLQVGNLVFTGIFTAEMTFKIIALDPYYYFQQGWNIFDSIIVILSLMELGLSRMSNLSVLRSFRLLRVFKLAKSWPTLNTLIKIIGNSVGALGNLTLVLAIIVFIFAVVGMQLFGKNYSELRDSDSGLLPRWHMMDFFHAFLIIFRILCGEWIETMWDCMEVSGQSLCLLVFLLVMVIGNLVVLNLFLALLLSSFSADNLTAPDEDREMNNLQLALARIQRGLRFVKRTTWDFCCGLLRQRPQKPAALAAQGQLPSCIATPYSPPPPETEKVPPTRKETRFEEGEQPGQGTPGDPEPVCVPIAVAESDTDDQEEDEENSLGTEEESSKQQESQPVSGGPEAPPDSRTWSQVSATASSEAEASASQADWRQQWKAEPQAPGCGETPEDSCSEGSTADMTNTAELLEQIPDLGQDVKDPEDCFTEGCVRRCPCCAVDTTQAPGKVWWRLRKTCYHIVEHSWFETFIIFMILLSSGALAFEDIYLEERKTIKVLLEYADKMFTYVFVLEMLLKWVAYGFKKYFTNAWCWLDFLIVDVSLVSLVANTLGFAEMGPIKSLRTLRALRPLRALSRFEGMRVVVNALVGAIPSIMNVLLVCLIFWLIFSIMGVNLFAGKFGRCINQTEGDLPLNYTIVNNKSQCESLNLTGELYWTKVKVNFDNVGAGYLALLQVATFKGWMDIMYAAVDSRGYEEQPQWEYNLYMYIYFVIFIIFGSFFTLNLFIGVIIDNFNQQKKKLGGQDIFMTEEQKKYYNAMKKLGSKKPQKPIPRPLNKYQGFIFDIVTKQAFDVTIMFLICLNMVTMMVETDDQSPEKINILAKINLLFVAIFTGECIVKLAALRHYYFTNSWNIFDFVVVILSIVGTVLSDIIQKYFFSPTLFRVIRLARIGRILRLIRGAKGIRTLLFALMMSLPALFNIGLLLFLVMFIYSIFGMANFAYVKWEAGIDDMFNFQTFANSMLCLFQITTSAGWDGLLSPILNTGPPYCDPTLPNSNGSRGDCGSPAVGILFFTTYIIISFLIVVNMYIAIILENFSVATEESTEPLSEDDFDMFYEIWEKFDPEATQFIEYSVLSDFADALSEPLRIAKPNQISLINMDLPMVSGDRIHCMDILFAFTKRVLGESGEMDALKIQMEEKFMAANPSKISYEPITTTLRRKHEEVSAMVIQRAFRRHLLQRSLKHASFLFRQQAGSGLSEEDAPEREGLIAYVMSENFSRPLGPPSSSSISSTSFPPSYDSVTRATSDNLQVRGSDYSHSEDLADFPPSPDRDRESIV
T1 sequence (P23219 24-599): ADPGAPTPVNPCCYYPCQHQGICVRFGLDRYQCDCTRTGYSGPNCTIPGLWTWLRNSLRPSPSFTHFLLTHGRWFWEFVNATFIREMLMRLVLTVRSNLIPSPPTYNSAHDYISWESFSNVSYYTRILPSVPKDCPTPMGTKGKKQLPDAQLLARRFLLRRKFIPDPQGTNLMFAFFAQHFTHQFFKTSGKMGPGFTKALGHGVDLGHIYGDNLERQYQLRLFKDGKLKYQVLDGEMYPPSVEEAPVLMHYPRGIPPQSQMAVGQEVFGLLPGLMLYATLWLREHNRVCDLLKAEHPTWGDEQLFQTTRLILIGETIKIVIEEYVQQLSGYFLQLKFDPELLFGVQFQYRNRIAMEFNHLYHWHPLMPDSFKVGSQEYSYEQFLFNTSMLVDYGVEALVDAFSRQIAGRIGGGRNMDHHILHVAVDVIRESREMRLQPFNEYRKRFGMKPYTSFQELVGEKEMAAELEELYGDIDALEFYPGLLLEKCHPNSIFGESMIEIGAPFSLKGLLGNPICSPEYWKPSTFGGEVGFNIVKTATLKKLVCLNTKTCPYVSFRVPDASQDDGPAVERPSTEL
T3 sequence (P06239 whole entry): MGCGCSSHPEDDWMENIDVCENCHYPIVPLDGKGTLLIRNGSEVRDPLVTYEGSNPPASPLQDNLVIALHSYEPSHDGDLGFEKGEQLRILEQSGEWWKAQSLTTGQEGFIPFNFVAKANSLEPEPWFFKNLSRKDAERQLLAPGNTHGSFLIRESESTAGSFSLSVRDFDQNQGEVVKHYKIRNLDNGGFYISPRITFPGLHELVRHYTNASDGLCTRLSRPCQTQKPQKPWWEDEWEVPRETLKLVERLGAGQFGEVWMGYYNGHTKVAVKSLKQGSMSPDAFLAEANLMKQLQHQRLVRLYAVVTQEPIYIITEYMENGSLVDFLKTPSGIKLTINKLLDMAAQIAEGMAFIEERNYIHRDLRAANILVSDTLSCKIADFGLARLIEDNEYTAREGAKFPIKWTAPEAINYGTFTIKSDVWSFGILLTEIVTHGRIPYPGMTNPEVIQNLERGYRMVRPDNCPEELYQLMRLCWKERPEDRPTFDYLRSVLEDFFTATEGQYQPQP

Turning to `Cc1[nH]c2nc(N)nc(C)c2c1-c1ccc(C#N)c2c1OCO2` [DNDI-6174], the EC50 in data set [1] was in the range of 5 to 20 µM. Further, the fraction unbound at 24 h in data set [2] (BALB/c, mouse) is 0.12; in data set [2] (Sprague Dawley, rat), 0.069; in data set [2] (beagle, dog), 0.05; in data set [2] (golden Syrian, hamster), 0.09; in data set [2] (human), 0.059. Moreover, the “Hepatocyte predicted in vivo CLplasma” value in data set [3] (Dog) is recorded as 0.30 mL/min/kg. The hepatocyte CLint at 0.5 µM in [3] (dog, cryopreserved hepatocytes) was found to be 1 ± 0.27 µL/min/1e6 cells. In “In vivo pharmacokinetics” (mouse, iv, 2 mg/kg, intravenous 2.0 mg/kg, read-out: Plasma CL), the clearance came out at 7.46 mL/min/kg. Moreover, in “In vivo pharmacokinetics” (Mouse, intravenous 2.0 mg/kg, read-out: Apparent t1/2 (converted)), the half-life was 120 min. The molecule further returned a Cmax in the data set “In vivo pharmacokinetics” (Mouse, oral 25 mg/kg) of 10400 ng/mL. The Tmax in “In vivo pharmacokinetics” (Mouse, oral 25 mg/kg) was found to be 1 h. In “In vivo pharmacokinetics” (Mouse, oral 25 mg/kg), the bioavailability is more than 100%. In addition, in data set [4], the CC50 was more than 37 µM. The “activity (% of DMSO control)” value in the data set with AR is given as 99.1%. Moreover, the remaining activity at 10 µM on COX1 was 115%; on COX2, 137%; at Lck kinase, 100%; on PDE3A (setting [5]), 30.1%; on PDE4D2 (setting [5]), 27.1%; on acetylcholinesterase, 96.8%. Further, the IC50 at PDE3A (human PDE3A) is 3.36 µM; against PDE4D2 (human PDE4D2), 6.67 µM; on NaV1.5, more than 50 µM.
